According to article PMC8290231 (Cancer Medicine, 2021):

Molecular target: FGFR4 (Homo sapiens, UniProt P22455)
Assay: FRET-based Z′-Lyte kinase assay
Assay type: biochemical

Sequence of FGFR4 (P22455 22-802): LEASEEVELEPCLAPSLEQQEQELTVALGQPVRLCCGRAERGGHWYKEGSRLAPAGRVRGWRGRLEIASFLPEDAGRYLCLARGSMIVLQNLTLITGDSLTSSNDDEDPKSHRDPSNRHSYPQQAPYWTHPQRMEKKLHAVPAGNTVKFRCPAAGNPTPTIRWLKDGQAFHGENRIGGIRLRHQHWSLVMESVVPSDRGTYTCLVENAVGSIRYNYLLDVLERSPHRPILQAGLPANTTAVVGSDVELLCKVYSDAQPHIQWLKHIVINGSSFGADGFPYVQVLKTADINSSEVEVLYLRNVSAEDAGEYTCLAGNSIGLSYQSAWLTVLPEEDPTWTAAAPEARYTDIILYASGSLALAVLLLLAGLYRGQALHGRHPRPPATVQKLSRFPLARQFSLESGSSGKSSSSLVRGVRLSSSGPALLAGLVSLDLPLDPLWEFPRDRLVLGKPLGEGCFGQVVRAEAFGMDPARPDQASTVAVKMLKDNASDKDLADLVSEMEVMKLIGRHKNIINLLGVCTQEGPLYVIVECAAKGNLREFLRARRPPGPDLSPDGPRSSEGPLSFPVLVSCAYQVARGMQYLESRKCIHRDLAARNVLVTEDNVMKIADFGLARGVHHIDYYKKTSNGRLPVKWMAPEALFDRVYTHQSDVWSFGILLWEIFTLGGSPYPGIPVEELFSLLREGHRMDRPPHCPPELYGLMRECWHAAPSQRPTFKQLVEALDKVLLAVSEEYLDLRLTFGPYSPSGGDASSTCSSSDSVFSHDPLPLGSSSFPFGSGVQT

Structure (SMILES): Cc1ccc(C(=O)Nc2ccc(CN3CCN(C)CC3)c(C(F)(F)F)c2)cc1C#Cc1cnc2[nH]ncc2c1 [GZD824]
- IC50: 30.3 ± 21.7 nM
